Reference: patent US20250099407A1, “2-AMINO BENZOPHENONE DERIVATIVES FOR TARGETED FERROPTOSIS INDUCTION IN CANCER THERAPY” (INDIAN INSTITUTE OF TECHNOLOGY KANPUR, priority 2023, published 2025)

Test system: Huh-7 cells
Test: Intracellular ROS, H2-DCFDA oxidation assay in Huh-7 cells
Format: cell-based
Details: Huh-7, 37° C., 30 min; IITK3001 and IITK3002 20 μM, H2O2 100 μM
Procedure: We used fluorescence imaging-based oxidation of H2-DCFDA by ROS for assessing intracellular oxidative stress. Huh-7 cells were treated at 37° C. for 30 min with IITK3001 and IITK3002 (20 μM), H2O2 (100 μM), ^tertBuOOH (20 μM), NAC (0.5 mM) and 0.1% DMSO as control. Each experiment was conducted in more than two biological replicates with three technical replicates.
b. Effect of Thiols and Ferroptosis Modulators on the Hit Molecules' Antiproliferative Potency: Ferroptosis is directly controlled by the intracellular thiol concentrations in the form of cysteine and glutathione. Several oxidative mechanisms are well-wired in ferroptotic cell death and we set out to investigate the precise molecular mechanism of our lead molecules. Both cysteine and glutathione (GSH) are the enriched thiol-containing small molecule antioxidant system that are essential regulators of redox modulation in cells including ferroptosis. Further, the enzyme glutathione peroxidase 4 (GPX4) is well characterized to specifically quench the lipid peroxide equivalents in cells through the conversion of […] in cells thereby restoring the reduced environment in cells. Therefore, first, we assessed the ability of N-acetylcysteine (NAC) and GSH to suppress our lead molecules antiproliferative activity (FIG. 4a, b). We found a drastic reduction in the molecules' potency with IITK3001 (>1000-fold reduction) and IITK3002 (>500-fold reduction) (FIG. 14a, b). Supporting that, the addition of DL-Buthionine sulfoximine (BSO), an inhibitor of y-glutamylcysteine synthetase (glutathione biosynthesis) combination with our lead molecules potentiated the overall inhibitory capacity (FIG. 14a, b). […] Finally, we assessed the effect of Ferrostain-1 (Fer-1) and Liproxstatin-1 (Lip-1), antioxidants that function by trapping reactive radicals in cells, particularly lipid-peroxide radicals, and preventing the accumulation of lipid peroxides in cells. […] The accumulation of lipid peroxides and overall ROS was also detected using a fluorescence-based H2DCF-DA assay as depicted in FIG. 15. […]

For OO [Hydrogen peroxide, reference compound], the “intracellular ROS, H2DCF-DA fluorescence intensity” value was “drastic enhancement in the fluorescence intensity”.
